Laboratory results as given in ChEMBL document CHEMBL1131821, “SAR in the alkoxy lactone series: the discovery of DFP, a potent and orally active COX-2 inhibitor” (Bioorg Med Chem Lett, 1999).

Legend:
[1] = target: T1, Prostaglandin G/H synthase 1 (Homo sapiens, UniProt P23219); format: tissue-based, Blood
Description: Inhibitory activity against Prostaglandin G/H synthase 1 in human whole blood

Rattus norvegicus [2] = test: In vivo effective concentration of compound in rat adjuvant arthritis; format: functional
Rattus norvegicus [3] = test: In vivo effective concentration of compound in rat paw edema; format: functional
Rattus norvegicus [4] = test: In vivo effective concentration of compound in rat pyresis; format: functional
Rattus norvegicus [5] = test: In vivo effective concentration of compound in rat hyperalgesia; format: functional
[6] = target: T1, Prostaglandin G/H synthase 1; test: In vitro inhibitory activity against Prostaglandin G/H synthase 1 in human whole blood assay
[7] = target: T1, Prostaglandin G/H synthase 1; test: Inhibitory activity against Human Cyclooxygenase-1 ( COX-1 ) in U937 Microsome COX-1 assay
[8] = target: T1, Prostaglandin G/H synthase 1; test: Inhibitory activity against Human Prostaglandin G/H synthase 1 in U937 Microsome COX-1 assay
[9] = Half life by ''Cr'' assay in dog at a dose of 5 mg/kg; format: ADME, organism-based, Canis lupus familiaris; design: dose 5 mg/kg; settings: in vivo
[10] = Half life the of compound was determined by ''Cr'' assay in squirrel monkey at a dose of 5 mg/kg; format: ADME, organism-based; design: dose 5 mg/kg; settings: in vivo
[11] = Maximal concentration (Cmax) in rhesus monkey plasma at a dose of 5 mg/kg; format: ADME, organism-based; design: dose 5 mg/kg; settings: cercopithecidae
[12] = Maximal concentration (Cmax) in squirrel monkey plasma at a dose of 5 mg/kg; format: ADME, organism-based; design: dose 5 mg/kg
[13] = Maximal concentration (Cmax) in dog plasma at a dose of […] mg/kg; format: ADME, organism-based, Canis lupus familiaris; settings: 5 mg/kg
[14] = Maximal concentration (Cmax) in the rat plasma at a dose of 10 mg/kg; format: ADME, organism-based; design: dose 10 mg/kg
[15] = Half life the of compound was determined by ''Cr'' assay in rat at a dose of 10 mg/kg; format: ADME, organism-based; design: dose 10 mg/kg; settings: in vivo
[16] = target: T1, Prostaglandin G/H synthase 1; test: Inhibitory activity against Human Prostaglandin G/H synthase 1 in U937 Microsome COX-1 assay at a concentration of 30 uM
[17] = Half life by ''Cr'' assay in rhesus monkey at a dose of 5 mg/kg; format: ADME, organism-based; design: dose 5 mg/kg; settings: cercopithecidae, in vivo

T1 sequence (P23219 whole entry): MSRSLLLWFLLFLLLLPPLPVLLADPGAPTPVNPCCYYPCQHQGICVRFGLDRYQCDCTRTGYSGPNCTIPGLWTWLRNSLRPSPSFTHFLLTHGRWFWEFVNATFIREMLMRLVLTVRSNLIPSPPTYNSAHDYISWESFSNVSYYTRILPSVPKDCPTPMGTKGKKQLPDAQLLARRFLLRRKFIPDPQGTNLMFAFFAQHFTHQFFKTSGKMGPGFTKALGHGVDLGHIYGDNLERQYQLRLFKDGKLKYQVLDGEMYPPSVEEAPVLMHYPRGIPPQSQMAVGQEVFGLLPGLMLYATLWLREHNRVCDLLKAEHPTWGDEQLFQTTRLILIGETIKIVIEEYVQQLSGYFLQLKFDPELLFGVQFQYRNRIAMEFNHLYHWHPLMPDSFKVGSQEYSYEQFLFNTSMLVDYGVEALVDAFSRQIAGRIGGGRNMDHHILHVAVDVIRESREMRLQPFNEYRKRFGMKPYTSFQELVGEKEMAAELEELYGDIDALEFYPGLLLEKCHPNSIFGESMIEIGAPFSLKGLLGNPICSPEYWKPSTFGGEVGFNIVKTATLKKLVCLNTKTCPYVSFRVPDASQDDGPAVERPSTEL

SMILES: CCC(CC)OC1=C(c2ccc(S(C)(=O)=O)cc2)C(C)(C)OC1=O
- IC50 [1]: 39 µM

SMILES: COc1ccc2c(c1)c(CC(=O)O)c(C)n2C(=O)c1ccc(Cl)cc1 [INDOMETHACIN]
- ED50 (Rattus norvegicus [2]): 0.2 mg/kg
- ED50 (Rattus norvegicus [3]): 2 mg/kg
- ED50 (Rattus norvegicus [4]): 1.1 mg/kg
- ED50 (Rattus norvegicus [5]): 1.5 mg/kg

SMILES: CC1(C)OC(=O)C(OC2CCC2)=C1c1ccc(S(C)(=O)=O)cc1
- IC50 [1]: 30 µM

SMILES: CC1(C)OC(=O)C(OC2CCCCC2)=C1c1ccc(S(C)(=O)=O)cc1
- IC50 [6]: > 58 µM

SMILES: CC(OC1=C(c2ccc(S(C)(=O)=O)cc2)C(C)(C)OC1=O)C1CC1 (configuration not stated)
- IC50 [7]: 6.5 µM
- IC50 [1]: 36 µM

SMILES: CC1(C)OC(=O)C(OCC2CC2)=C1c1ccc(S(C)(=O)=O)cc1 [FIROCOXIB]
- IC50 [8]: 25 µM
- IC50 [1]: > 100 µM

SMILES: CC1(C)OC(=O)C(OC2CCCC2)=C1c1ccc(S(C)(=O)=O)cc1
- IC50 [1]: > 100 µM

SMILES: CC(C)OC1=C(c2ccc(S(C)(=O)=O)cc2)C(C)(C)OC1=O
- half-life [9]: 4.8 h
- half-life [10]: 1.4 h
- Cmax [11]: 3 µM
- Cmax [12]: 5.5 µM
- Cmax [13]: 12 µM
- Cmax [14]: 15 µM
- half-life [15]: 7.1 h
- inhibition [16]: 32%
- ED50 (Rattus norvegicus [2]): 0.15 mg/kg
- ED50 (Rattus norvegicus [3]): 0.8 mg/kg
- ED50 (Rattus norvegicus [4]): 0.3 mg/kg
- half-life [17]: 2 h
- IC50 [1]: > 100 µM
- ED50 (Rattus norvegicus [5]): 0.8 mg/kg

SMILES: CCC(C)OC1=C(c2ccc(S(C)(=O)=O)cc2)C(C)(C)OC1=O (configuration not stated)
- IC50 [1]: 10 µM
